Key:
CD73 [1] = target: T1, CD73 (Homo sapiens (Human), UniProt P21589); assay type: biochemical; conditions: 1 mM NaH2PO4 in enzyme buffer, CD73 0.3 nM, AMP 15 uM
CD73 [2] = target: T1, CD73; test: MDA-MB-231 Cell Based CD73 Activity Assay (DMEM); conditions: MDA-MB-231-GFP cells, DMEM medium with 10% human plasma, 200 uM AMP
Description: MDA-MB-231 Cell Based CD73 Activity Assay (DMEM) MDA-MB-231-GFP cells were seeded in 384-well plates (Greiner 781946) at a density of 3000 cells per well in 50 μL of DMEM medium with 10% HP (human plasma). Cells were plated into assay plate with compounds pre-spotted, for an overnight compound treatment. 50 uL of 400 uM AMP (final concentration will be 200 uM) was added using Bio-tek dispenser. Plates were incubated for 100 mins. […] The samples were analyzed using Rapid fire.

T1 sequence (P21589 27-574): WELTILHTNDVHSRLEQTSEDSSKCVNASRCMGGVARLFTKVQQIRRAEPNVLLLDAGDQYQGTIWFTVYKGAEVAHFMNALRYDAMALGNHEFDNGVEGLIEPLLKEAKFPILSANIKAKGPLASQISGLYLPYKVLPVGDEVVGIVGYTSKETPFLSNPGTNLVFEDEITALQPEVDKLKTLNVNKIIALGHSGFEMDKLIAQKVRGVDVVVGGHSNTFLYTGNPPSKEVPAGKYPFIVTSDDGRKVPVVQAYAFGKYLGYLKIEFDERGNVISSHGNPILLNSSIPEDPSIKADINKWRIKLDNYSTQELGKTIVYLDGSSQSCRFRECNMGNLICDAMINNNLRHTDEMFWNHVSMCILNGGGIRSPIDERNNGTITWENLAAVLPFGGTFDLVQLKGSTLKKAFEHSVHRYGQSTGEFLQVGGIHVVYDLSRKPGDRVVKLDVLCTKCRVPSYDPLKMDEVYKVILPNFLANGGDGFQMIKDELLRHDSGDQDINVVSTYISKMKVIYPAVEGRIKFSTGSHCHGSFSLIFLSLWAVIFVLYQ

Row | SMILES | IC50 (CD73 [1]) [nM] | EC50 (CD73 [2]) [nM]
1 | O=c1[nH]cc(-c2cc([C@H]3C[C@@H]3c3ccc4ncsc4c3)c3ncc(F)n3n2)c(=O)[nH]1 (racemic) [Example 581, 5-(8-((1S,2S)-2-(benzo[d]thiazol-6-yl)cyclopropyl)-3-fluoroimidazo[1,2-b]pyridazin-6-yl)pyrimidine-2,4(1H,3H)-dione] | 0.89 | 2.16
2 | O=c1[nH]cc(-c2cc([C@H]3C[C@@H]3c3ccc4nc(C(F)F)sc4c3)c3nccn3n2)c(=O)[nH]1 (racemic) [Example 589, 5-(8-((1S,2S)-2-(2-(difluoromethyl)benzo[d]thiazol-6-yl)cyclopropyl)imidazo[1,2-b]pyridazin-6-yl)pyrimidine-2,4(1H,3H)-dione] | 0.63 | 2.56
3 | O=c1[nH]cc(-c2cc([C@H]3C[C@@H]3c3cc(OCC4CC4(F)F)c(Cl)cn3)c3nccn3n2)c(=O)[nH]1 (mixture of isomers) [Example 597, 5-(8-((1S,2S)-2-(5-chloro-4-((2,2-difluorocyclopropyl)methoxy)pyridin-2-yl)cyclopropyl)imidazo[1,2-b]pyridazin-6-yl)pyrimidine-2,4(1H,3H)-dione] | 2.79 | 5.93
4 | O=c1[nH]cc(-c2cc([C@H]3C[C@@H]3c3ccc4ccc(=O)n(CC(F)(F)F)c4c3)c3nccn3n2)c(=O)[nH]1 (racemic) [Example 598, 5-(8-((1S,2S)-2-(2-oxo-1-(2,2,2-trifluoroethyl)-1,2-dihydroquinolin-7-yl)cyclopropyl)imidazo[1,2-b]pyridazin-6-yl)pyrimidine-2,4(1H,3H)-dione] | 1.11 | 0.11

Next, values leading:

Row | IC50 (CD73 [1]) [nM] | EC50 (CD73 [2]) [nM] | SMILES
5 | 4.96 | 15.6 | O=c1[nH]cc(-c2cc([C@H]3C[C@@H]3c3ncc(C(F)(F)F)cc3F)c3nccn3n2)c(=O)[nH]1 (racemic) [Example 582, 5-(8-((1S,2S)-2-(3-fluoro-5-(trifluoromethyl)pyridin-2-yl)cyclopropyl)imidazo[1,2-b]pyridazin-6-yl)pyrimidine-2,4(1H,3H)-dione]
6 | 2.63 | 9.53 | O=c1[nH]cc(-c2cc([C@H]3C[C@@H]3c3ncc(Cl)cc3F)c3ncc(F)n3n2)c(=O)[nH]1 (racemic) [Example 583, 5-(8-((1S,2S)-2-(5-chloro-3-fluoropyridin-2-yl)cyclopropyl)-3-fluoroimidazo[1,2-b]pyridazin-6-yl)pyrimidine-2,4(1H,3H)-dione]
7 | 0.72 | 0.17 | O=c1[nH]cc(-c2cc([C@H]3C[C@@H]3c3cc4c(cn3)cnn4CC(F)(F)F)c3nccn3n2)c(=O)[nH]1 (racemic) [Example 591, 5-(8-((1S,2S)-2-(1-(2,2,2-trifluoroethyl)-1H-pyrazolo[4,3-c]pyridin-6-yl)cyclopropyl)imidazo[1,2-b]pyridazin-6-yl)pyrimidine-2,4(1H,3H)-dione]
8 | 2.38 | 41.2 | O=c1[nH]cc(-c2cc([C@H]3C[C@@H]3c3ccc4ccc(OCC(F)(F)F)nc4c3)c3nccn3n2)c(=O)[nH]1 (racemic) [Example 599, 5-(8-((1S,2S)-2-(2-(2,2,2-trifluoroethoxy)quinolin-7-yl)cyclopropyl)imidazo[1,2-b]pyridazin-6-yl)pyrimidine-2,4(1H,3H)-dione]
9 | 2.59 | 6.64 | O=c1[nH]cc(-c2cc([C@H]3C[C@@H]3c3cc(OCC(F)(F)F)c(Cl)cn3)c3nccn3n2)c(=O)[nH]1 (racemic) [Example 600, 5-(8-((1S,2S)-2-(5-chloro-4-(2,2,2-trifluoroethoxy)pyridin-2-yl)cyclopropyl)imidazo[1,2-b]pyridazin-6-yl)pyrimidine-2,4(1H,3H)-dione]
10 | 1.16 | 0.17 | O=c1[nH]cc(-c2cc([C@H]3C[C@@H]3c3ccc4cnn(CC(F)(F)F)c4n3)c3nccn3n2)c(=O)[nH]1 (racemic) [Example 601, 5-(8-((1S,2S)-2-(1-(2,2,2-trifluoroethyl)-1H-pyrazolo[3,4-b]pyridin-6-yl)cyclopropyl)imidazo[1,2-b]pyridazin-6-yl)pyrimidine-2,4(1H,3H)-dione]
